The numbers were not newly measured in US11377636B2, “Endogenous retrovirus transcription as a marker for primate naive pluripotent stem cells” (Max-Delbrück-Centrum für Molekulare Medizin in der …, priority 2014, dated 2022), which cites them from elsewhere.

For one series, the target named is PKCβ (Homo sapiens, UniProt P05771).
Another series concerns the target T1, PKCζ (Homo sapiens, UniProt Q05513).
T1 sequence (Q05513 1-592): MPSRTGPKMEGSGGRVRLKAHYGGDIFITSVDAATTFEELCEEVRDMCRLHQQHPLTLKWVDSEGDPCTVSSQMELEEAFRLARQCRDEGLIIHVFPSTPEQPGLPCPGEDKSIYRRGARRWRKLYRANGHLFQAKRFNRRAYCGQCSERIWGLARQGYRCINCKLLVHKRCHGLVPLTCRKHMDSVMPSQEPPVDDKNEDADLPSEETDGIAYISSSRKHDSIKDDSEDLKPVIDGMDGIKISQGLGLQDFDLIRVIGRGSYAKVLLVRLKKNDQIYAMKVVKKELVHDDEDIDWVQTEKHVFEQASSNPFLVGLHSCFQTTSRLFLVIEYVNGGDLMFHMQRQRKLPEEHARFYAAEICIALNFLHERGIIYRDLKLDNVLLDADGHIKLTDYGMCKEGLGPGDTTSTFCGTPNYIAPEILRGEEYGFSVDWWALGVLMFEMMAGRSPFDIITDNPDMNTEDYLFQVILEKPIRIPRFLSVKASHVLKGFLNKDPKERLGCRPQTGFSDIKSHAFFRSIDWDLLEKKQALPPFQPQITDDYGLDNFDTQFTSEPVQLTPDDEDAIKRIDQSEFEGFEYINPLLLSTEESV

A further series concerns the target T2, PKCμ (Homo sapiens, UniProt Q15139).
T2 sequence (Q15139 1-912): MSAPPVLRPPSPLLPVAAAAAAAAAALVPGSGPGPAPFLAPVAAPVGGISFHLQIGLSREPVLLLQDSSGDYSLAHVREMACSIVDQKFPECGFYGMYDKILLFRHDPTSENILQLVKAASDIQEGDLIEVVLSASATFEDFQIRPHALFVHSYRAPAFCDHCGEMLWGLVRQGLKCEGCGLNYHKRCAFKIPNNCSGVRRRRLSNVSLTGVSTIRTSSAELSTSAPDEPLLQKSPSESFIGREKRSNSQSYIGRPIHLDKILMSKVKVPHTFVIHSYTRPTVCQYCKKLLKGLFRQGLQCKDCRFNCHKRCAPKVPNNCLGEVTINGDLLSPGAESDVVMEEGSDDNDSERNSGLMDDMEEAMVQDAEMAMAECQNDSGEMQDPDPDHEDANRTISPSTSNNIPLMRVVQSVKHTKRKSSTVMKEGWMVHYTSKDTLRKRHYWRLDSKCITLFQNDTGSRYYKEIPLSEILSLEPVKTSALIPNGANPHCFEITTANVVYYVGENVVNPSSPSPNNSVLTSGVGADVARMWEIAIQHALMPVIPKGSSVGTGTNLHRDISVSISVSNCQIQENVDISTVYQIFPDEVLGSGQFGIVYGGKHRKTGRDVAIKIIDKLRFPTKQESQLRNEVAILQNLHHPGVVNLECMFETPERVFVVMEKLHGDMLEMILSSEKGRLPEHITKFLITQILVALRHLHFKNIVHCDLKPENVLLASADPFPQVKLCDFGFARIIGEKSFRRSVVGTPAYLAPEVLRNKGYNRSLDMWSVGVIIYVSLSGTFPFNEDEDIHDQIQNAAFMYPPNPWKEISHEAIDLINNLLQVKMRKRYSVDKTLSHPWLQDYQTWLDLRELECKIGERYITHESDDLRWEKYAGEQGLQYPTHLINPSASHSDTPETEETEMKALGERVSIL
The following applies: does not effectively inhibit PKCμ.

Another series has as its target PKCδ (Homo sapiens, UniProt Q05655).
The target of a further series is PKCα (Homo sapiens, UniProt P17252).
The target in another series is PKCγ (Homo sapiens, UniProt P05129).
Another series has as its target GSK3β (Homo sapiens, UniProt P49841).
For a further series, the target named is Src kinase (Homo sapiens, UniProt P12931).
A further series concerns the target KDR (Homo sapiens, UniProt P35968).

GSK3β, sequence (P49841 whole entry, species assumed): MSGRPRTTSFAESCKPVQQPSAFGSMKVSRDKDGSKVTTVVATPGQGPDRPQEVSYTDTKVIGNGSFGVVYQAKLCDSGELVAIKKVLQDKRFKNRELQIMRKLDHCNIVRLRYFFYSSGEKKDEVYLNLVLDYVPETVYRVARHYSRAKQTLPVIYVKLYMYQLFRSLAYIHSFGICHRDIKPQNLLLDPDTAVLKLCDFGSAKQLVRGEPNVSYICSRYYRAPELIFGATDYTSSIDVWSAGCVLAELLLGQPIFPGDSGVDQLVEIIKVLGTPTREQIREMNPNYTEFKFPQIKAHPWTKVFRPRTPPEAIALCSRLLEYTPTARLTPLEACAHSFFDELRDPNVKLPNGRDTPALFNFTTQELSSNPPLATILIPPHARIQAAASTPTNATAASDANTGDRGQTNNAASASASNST
KDR, sequence (P35968 20-1356, species assumed): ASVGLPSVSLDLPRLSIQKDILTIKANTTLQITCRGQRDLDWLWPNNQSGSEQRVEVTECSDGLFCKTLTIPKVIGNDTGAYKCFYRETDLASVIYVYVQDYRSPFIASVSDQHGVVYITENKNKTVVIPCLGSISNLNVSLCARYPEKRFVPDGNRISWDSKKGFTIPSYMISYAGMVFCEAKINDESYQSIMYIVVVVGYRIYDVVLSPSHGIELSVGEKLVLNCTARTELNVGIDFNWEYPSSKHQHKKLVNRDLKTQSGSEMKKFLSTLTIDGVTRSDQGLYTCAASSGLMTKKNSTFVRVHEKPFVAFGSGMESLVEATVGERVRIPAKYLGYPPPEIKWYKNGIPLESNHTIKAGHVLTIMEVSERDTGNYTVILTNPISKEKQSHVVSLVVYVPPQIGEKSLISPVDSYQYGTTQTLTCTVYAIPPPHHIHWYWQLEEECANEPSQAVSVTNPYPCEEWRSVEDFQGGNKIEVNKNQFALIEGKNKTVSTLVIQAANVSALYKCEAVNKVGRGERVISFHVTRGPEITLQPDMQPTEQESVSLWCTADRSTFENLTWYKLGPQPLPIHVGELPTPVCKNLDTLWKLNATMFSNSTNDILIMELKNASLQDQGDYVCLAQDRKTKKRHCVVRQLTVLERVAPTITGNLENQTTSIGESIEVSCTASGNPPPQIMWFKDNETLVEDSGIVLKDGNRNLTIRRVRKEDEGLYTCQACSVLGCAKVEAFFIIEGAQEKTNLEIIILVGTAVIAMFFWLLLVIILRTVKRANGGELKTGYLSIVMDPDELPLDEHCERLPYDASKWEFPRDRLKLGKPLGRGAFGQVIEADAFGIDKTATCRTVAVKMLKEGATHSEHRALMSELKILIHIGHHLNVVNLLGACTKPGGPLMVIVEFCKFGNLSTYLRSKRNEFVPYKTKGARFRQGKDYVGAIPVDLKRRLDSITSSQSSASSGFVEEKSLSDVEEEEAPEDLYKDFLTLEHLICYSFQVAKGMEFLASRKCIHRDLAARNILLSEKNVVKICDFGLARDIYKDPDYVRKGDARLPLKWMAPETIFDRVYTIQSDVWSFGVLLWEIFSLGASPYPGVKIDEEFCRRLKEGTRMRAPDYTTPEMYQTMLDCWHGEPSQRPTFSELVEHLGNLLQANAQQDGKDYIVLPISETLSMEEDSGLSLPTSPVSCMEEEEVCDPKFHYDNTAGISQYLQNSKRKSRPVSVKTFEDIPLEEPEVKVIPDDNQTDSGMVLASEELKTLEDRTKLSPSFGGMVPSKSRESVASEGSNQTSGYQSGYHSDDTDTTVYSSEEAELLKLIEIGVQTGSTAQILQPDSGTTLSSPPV
PKCβ, sequence (P05771 whole entry, species assumed): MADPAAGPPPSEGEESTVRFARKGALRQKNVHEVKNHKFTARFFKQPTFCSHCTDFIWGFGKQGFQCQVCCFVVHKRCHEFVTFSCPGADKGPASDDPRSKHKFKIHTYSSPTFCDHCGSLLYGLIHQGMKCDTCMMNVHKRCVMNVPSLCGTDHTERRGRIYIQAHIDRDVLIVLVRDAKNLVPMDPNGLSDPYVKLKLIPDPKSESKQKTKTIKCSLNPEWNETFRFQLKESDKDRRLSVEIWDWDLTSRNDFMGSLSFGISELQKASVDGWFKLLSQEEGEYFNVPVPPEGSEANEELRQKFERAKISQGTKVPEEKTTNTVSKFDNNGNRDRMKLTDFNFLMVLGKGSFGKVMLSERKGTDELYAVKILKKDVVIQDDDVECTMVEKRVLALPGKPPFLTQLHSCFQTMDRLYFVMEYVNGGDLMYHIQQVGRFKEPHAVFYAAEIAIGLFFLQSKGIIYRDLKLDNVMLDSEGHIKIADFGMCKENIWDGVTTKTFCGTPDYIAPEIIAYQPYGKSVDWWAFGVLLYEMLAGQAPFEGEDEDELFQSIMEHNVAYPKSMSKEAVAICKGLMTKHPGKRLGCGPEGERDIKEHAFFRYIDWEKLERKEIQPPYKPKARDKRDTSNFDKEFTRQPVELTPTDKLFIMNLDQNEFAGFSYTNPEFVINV
PKCδ, sequence (Q05655 whole entry): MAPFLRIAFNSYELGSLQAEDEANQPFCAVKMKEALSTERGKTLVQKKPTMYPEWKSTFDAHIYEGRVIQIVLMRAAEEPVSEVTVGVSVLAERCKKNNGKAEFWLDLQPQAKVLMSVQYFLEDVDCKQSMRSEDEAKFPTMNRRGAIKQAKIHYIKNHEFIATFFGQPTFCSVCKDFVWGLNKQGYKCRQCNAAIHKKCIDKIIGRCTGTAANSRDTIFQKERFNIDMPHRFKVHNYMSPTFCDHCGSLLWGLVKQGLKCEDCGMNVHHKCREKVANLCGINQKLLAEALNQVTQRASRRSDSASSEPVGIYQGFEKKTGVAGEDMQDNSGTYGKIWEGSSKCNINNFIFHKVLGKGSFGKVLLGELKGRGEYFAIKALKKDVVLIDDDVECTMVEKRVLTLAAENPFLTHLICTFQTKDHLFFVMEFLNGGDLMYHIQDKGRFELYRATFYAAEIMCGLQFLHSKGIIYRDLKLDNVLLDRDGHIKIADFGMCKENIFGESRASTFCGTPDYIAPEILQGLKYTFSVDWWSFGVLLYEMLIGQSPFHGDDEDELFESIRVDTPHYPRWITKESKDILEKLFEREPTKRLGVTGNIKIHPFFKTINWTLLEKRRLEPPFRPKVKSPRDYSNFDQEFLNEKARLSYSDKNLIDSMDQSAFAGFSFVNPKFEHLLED

With `CN1C(=O)[C@@]23C[C@]4([C@]56C[C@@]78SS[C@@](CO)(C(=O)N7[C@H]5Nc5ccccc56)N(C)C8=O)c5ccccc5N[C@@H]4N2C(=O)[C@]1(CO)SS3` [Chaetocin], the “cytotoxicity against HeLa cells IC50” value in the series on HeLa cells was 0.05 µg/mL.

For `COc1ccc2c(c1)c(C1=C(c3c[nH]c4ccccc34)C(=O)NC1=O)cn2CCCN(C)C` [Go6983], the 50% inhibitory concentration (IC50) at PKCβ is 7 nM; at PKCζ, 60 nM; on PKCμ it was 20000 nM; at PKCδ, 10 nM; on PKCα it was 7 nM; at PKCγ, 6 nM.

Consider `Cc1[nH]c2ccccc2c1C1=C(NCCc2ccc(F)cc2)C(=O)N(C)C1=O` [IM-12], for which the IC50 on GSK3β was 53 nM.

On to WH-4-023, for which, on Src kinase, the half-inhibitory concentration (IC50) was 6 nM. Also, at KDR, the “inhibition on KDR” value was “little inhibition”.
